Data taken from PMC6117091, “The C. difficile clnRAB operon initiates adaptations to the host environment in response to LL-37” (PLoS Pathogens, 2018).
≈ marks a conversion by molar mass, not a printed value.

Experiments:
[1] = tested on: C. difficile clnAB mutant; experiment: Growth in minimal medium with LL-37, maximum doubling time; settings: mean ± SD, n ≥ 3
[2] = tested on: C. difficile clnAB mutant; experiment: qRT-PCR of selected RNA-seq transcripts in LL-37; settings: 2 µg/ml LL-37; normalized to 630∆erm in BHIS; mean ± SEM, n ≥ 3
[3] = tested on: TcdA in C. difficile clnR and clnAB mutants; experiment: TcdA western blot; settings: 2 μg/ml LL-37, TY medium, 24 h, 37°C
C. difficile clnR mutant = experiment: clnR and clnA expression by qRT-PCR in LL-37; assay type: cell-based, Clostridioides difficile; settings: 2 µg/ml LL-37, BHIS
Protocol: Fig 4 ClnR acts as a conditional repressor and inducer of clnRAB expression. […] RNA samples were collected and processed for qRT-PCR analysis as described in Methods. Graphs show the mean mRNA expression levels of A) clnR and B) clnA relative to expression in strain 630Δerm in BHIS alone. […] Data were analyzed by two-way ANOVA and Tukey’s multiple comparisons test, with comparisons indicated by brackets. * indicates p < 0.05, ** indicates p ≤ 0.0001.

[4] = tested on: TcdA in C. difficile 630Δerm (parent strain); experiment: TcdA western blot; settings: 2 μg/ml LL-37, TY medium, 24 h, 37°C; three replicates
C. difficile 630Δerm [5] = experiment: Minimum bactericidal concentration (MBC); assay type: cell-based, Clostridioides difficile; settings: 1:10 dilution into BHIS, 24 h, 37°C, anaerobic
C. difficile 630Δerm [6] = experiment: Minimum inhibitory concentration (MIC); assay type: cell-based, Clostridioides difficile; settings: Mueller-Hinton Broth, 24 h, 37°C, anaerobic, ~5 x 10^5 CFU/ml
Protocol: (§1) Minimum inhibitory concentrations (MIC) were determined as previously described. […] Briefly, overnight cultures of C. difficile strains were diluted 1:50 in Mueller-Hinton Broth (Difco) and grown to OD600 of 0.45 (~5 x 10^7 CFU/ml). Cultures were then diluted 1:10 in MHB and seeded at a further 1:10 dilution in a round-bottom 96-well plate prepared with serial dilutions of antimicrobials for a starting concentration of ~5 x 10^5 CFU/ml. Plates were incubated for 24 h at 37°C in the anaerobic chamber.

[7] = tested on: C. difficile clnAB mutant (MC935); experiment: Minimum inhibitory concentration (MIC); assay type: cell-based, Clostridioides difficile; settings: Mueller-Hinton Broth, 24 h, 37°C, anaerobic, ~5 x 10^5 CFU/ml
Protocol: as §1

[8] = tested on: C. difficile clnR mutant (MC885); experiment: Minimum inhibitory concentration (MIC); assay type: cell-based, Clostridioides difficile; settings: Mueller-Hinton Broth, 24 h, 37°C, anaerobic, ~5 x 10^5 CFU/ml
Protocol: as §1

## CC[C@H](C)[C@H](NC(=O)[C@H](CCCCN)NC(=O)[C@H](CCC(=O)O)NC(=O)[C@H](CCCCN)NC(=O)[C@H](CO)NC(=O)[C@H](CCCCN)NC(=O)[C@H](CCCNC(=N)N)NC(=O)[C@H](Cc1ccccc1)NC(=O)[C@H](Cc1ccccc1)NC(=O)[C@H](CC(=O)O)NC(=O)CNC(=O)[C@H](CC(C)C)NC(=O)[C@@H](N)CC(C)C)C(=O)NCC(=O)N[C@@H](CCCCN)C(=O)N[C@@H](CCC(=O)O)C(=O)N[C@@H](Cc1ccccc1)C(=O)N[C@@H](CCCCN)C(=O)N[C@@H](CCCNC(=N)N)C(=O)N[C@H](C(=O)N[C@H](C(=O)N[C@@H](CCC(N)=O)C(=O)N[C@@H](CCCNC(=N)N)C(=O)N[C@H](C(=O)N[C@@H](CCCCN)C(=O)N[C@@H](CC(=O)O)C(=O)N[C@@H](Cc1ccccc1)C(=O)N[C@@H](CC(C)C)C(=O)N[C@@H](CCCNC(=N)N)C(=O)N[C@@H](CC(N)=O)C(=O)N[C@@H](CC(C)C)C(=O)N[C@H](C(=O)N1CCC[C@H]1C(=O)N[C@@H](CCCNC(=N)N)C(=O)N[C@H](C(=O)N[C@@H](CCC(=O)O)C(=O)N[C@@H](CO)C(=O)O)[C@@H](C)O)C(C)C)[C@@H](C)CC)C(C)C)[C@@H](C)CC [LL-37]
[1]; 0.5 µg/ml LL-37, MM + 30 mM NAG, § p < 0.05 vs no LL-37
  Doubling time: 80.3 ± 1.0 min
[1]; 0.5 µg/ml LL-37, MM + 30 mM ethanolamine
  Doubling time: 79.6 ± 9.0 min
[1]; 0.5 µg/ml LL-37, MM + 30 mM fructose
  Doubling time: 65.1 ± 2.0 min
[1]; 0.5 µg/ml LL-37, MM + 30 mM glucose
  Doubling time: 62.1 ± 2.2 min
[1]; 0.5 µg/ml LL-37, MM + 30 mM mannitol
  Doubling time: 58.3 ± 5.5 min
[1]; 0.5 µg/ml LL-37, MM + 30 mM mannose
  Doubling time: 66.8 ± 4.5 min
[1]; 0.5 µg/ml LL-37, base MM
  Doubling time: 77.1 ± 5.3 min
[2]
  cstA (CD630_26000) relative expression: 2.9 ± 1.2
  iorA (CD630_23810) relative expression: 20.5 ± 7.3
  mtlA (CD630_23340) relative expression: 5.5 ± 4.3
  sigT (csfT; CD630_06770) relative expression: 1.2 ± 0.1
  sigU (csfU; CD630_18870) relative expression: 3.1 ± 1.4
  vanZ1 (CD630_12400) relative expression: 0.9 ± 0.2
[3]
  TcdA levels (in words): TcdA levels did not change
C. difficile clnR mutant
  clnR and clnA expression (in words): no longer induced in the clnR mutant
[4]
  TcdA levels, fold decrease: about 3 fold
C. difficile 630Δerm [5]
  MBC: 20 mg/L (≈ 4.45 µM)
C. difficile 630Δerm [6]
  MIC: 15 mg/L (≈ 3.34 µM)
[7]
  MIC: 15 mg/L (≈ 3.34 µM)
[8]
  MIC: 15 mg/L (≈ 3.34 µM)
